Test results published in patent publication US20240116985A1, “STAPLED PEPTIDES AND METHODS THEREOF” (priority 2020, published 2024).
Starred links: 1 amine or outer side, 2 acyl side, 3 side chain; linkers in the order of their positions; H or OH if unused. Positions of bridges follow the written chain, without caps; N, C: chain ends. Non-standard residues stand in square brackets, D forms with d. Residues, ends and D or L forms follow the SMILES beside them. X3 = O=C([C@]1(CC=[*:3])CCCN1[*:1])[*:2]; Bta = N[C@@H](Cc1csc2ccccc12)C(=O)O; tBuAla = CC(C)(C)C[C@H](N)C(=O)O; 3Thi = N[C@@H](Cc1ccsc1)C(=O)O; R5 = C=CCCC[C@@](C)(N)C(=O)O; S5 = C=CCCC[C@](C)(N)C(=O)O; Aib = CC(C)(N)C(=O)O

Biological target: T1, full-length beta-Catenin (Uniprot ID P35222) (Homo sapiens, UniProt P35222)
T1 construct: 10 nM full-length beta-Catenin (Uniprot ID P35222)
T1 sequence (P35222 1-781): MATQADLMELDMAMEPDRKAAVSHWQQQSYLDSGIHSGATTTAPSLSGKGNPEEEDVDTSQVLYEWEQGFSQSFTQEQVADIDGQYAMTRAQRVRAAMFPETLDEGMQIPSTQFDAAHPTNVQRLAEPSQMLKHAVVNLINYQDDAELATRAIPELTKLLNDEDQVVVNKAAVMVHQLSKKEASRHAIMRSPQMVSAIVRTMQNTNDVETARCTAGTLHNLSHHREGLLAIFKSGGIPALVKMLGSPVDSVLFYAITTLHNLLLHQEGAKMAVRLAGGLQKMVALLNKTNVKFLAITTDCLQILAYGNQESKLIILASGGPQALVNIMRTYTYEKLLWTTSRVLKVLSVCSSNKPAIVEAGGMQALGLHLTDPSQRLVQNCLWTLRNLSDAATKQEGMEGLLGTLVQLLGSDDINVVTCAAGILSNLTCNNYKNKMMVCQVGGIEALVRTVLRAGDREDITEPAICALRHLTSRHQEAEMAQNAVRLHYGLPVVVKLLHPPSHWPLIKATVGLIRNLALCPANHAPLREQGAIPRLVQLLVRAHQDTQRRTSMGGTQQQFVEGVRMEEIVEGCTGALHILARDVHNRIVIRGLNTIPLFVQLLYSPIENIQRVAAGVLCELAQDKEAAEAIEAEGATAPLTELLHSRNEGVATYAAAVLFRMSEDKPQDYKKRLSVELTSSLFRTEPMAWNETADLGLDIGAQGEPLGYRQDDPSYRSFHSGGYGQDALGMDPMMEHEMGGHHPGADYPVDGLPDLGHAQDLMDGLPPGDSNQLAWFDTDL
Assay: Fluorescence polarization IC50 (beta-catenin / 5FAM-TCF4 10-53 competition)
Format: binding
Conditions: fluorescence polarization; read-out: beta-Catenin FP IC50

Compound	IC50 [µM]
CC(=O)N1CCC[C@]12CC=CCCC[C@@](C)(C(=O)N[C@@H](CC(=O)O)C(=O)N[C@@H](CC(=O)O)C(=O)N[C@@H](C)C(=O)N[C@@H](C)C(=O)N[C@@H](Cc1ccccc1)C(=O)N[C@]1(C)CCCC=CCCC[C@@](C)(C(=O)N[C@@H](C)C(N)=O)NC(=O)[C@H](Cc3csc4ccccc34)NC(=O)[C@H](Cc3ccsc3)NC(=O)[C@H](C)NC1=O)NC(=O)[C@H](CC(C)(C)C)NC(=O)[C@H](CC(=O)O)NC2=O [I-1778, Ac-PL3-Asp-Npg-S5-Asp-Asp-Ala-Ala-Phe-R5-Ala-3Thi-BztA-S5-Ala-NH2] (Ac-[X3]D[tBuAla][S5]DDAAF[R5]A[3Thi][Bta][S5]A-NH2; staple 1-4, 10-14 (inferred))	2.08
CC(=O)N1CCC[C@]12CC=CCCC[C@@](C)(C(=O)N[C@@H](CC(=O)O)C(=O)N[C@@H](CC(=O)O)C(=O)NC(C)(C)C(=O)N[C@@H](C)C(=O)N[C@@H](Cc1ccccc1)C(=O)N[C@]1(C)CCCC=CCCC[C@@](C)(C(=O)N[C@@H](C)C(N)=O)NC(=O)[C@H](Cc3csc4ccccc34)NC(=O)[C@H](Cc3ccsc3)NC(=O)[C@H](C)NC1=O)NC(=O)[C@H](CC(C)(C)C)NC(=O)[C@H](CC(=O)O)NC2=O [I-1780, Ac-PL3-Asp-Npg-S5-Asp-Asp-Aib-Ala-Phe-R5-Ala-3Thi-BztA-S5-Ala-NH2] (Ac-[X3]D[tBuAla][S5]DD[Aib]AF[R5]A[3Thi][Bta][S5]A-NH2; staple 1-4, 10-14 (inferred))	4.19
CC(=O)N1CCC[C@]12CC=CCCC[C@@](C)(C(=O)N[C@@H](CC(=O)O)C(=O)N[C@@H](CC(=O)O)C(=O)NC(C)(C)C(=O)N[C@@H](C)C(=O)N[C@@H](Cc1ccccc1)C(=O)N[C@]1(C)CCCC=CCCC[C@@](C)(C(=O)N[C@@H](C)C(N)=O)NC(=O)[C@H](Cc3csc4ccccc34)NC(=O)[C@H](Cc3ccsc3)NC(=O)[C@H](C)NC1=O)NC(=O)[C@H](CC(C)(C)C)NC(=O)[C@H](CC(=O)O)NC2=O [I-1781, Ac-PL3-Asp-Npg-S5-Asp-Asp-Aib-Ala-Phe-R5-Ala-3Thi-BztA-S5-Ala-NH2] (Ac-[X3]D[tBuAla][S5]DD[Aib]AF[R5]A[3Thi][Bta][S5]A-NH2; staple 1-4, 10-14 (inferred))	8.45
CC(=O)N1CCC[C@]12CC=CCCCC1(CCCC=CCCCOC(=O)N3CC[C@@](C(=O)N[C@@H](Cc4ccsc4)C(=O)N[C@@H](Cc4csc5ccccc45)C(=O)N[C@@H](CCC(N)=O)C(N)=O)(C3)NC(=O)[C@H](CC(C)C)NC(=O)[C@H](Cc3ccccc3)NC(=O)[C@H](C)NC(=O)[C@H](C)NC(=O)[C@H](CCc3ccc(O)cc3)NC(=O)[C@H](CC(=O)O)NC1=O)NC(=O)[C@H](CC(C)(C)C)NC(=O)[C@H](CC(=O)O)NC2=O (stereo partly drawn) [I-1787, Ac-PL3-Asp-Npg-B5-Asp-hTyr-Ala-Ala-Phe-Leu-PyrS2-3Thi-BztA-Gln-NH2]	0.776
CC(=O)N1CCC[C@]12CC=CCCCC1(CCCC=CCCCOC(=O)N3CC[C@@](C(=O)N[C@@H](Cc4ccsc4)C(=O)N[C@@H](Cc4csc5ccccc45)C(=O)N[C@@H](CCC(N)=O)C(N)=O)(C3)NC(=O)[C@H](CC(C)C)NC(=O)[C@H](Cc3ccccc3)NC(=O)[C@H](C)NC(=O)[C@H](C)NC(=O)[C@H](Cc3c(F)c(F)c(F)c(F)c3F)NC(=O)[C@H](CC(=O)O)NC1=O)NC(=O)[C@H](CC(C)(C)C)NC(=O)[C@H](CC(=O)O)NC2=O (stereo partly drawn) [I-1792, Ac-PL3-Asp-Npg-B5-Asp-Pff-Ala-Ala-Phe-Leu-PyrS2-3Thi-BztA-Gln-NH2]	0.935
CC(=O)N1CCC[C@]12CC=CCCCC1(CCCC=CCCCOC(=O)N3CC[C@@](C(=O)N[C@@H](Cc4ccsc4)C(=O)N[C@@H](Cc4csc5ccccc45)C(=O)N[C@@H](CCC(=O)N4CCC(N5CCCCC5)CC4)C(N)=O)(C3)NC(=O)[C@H](CC(C)C)NC(=O)[C@H](Cc3ccccc3)NC(=O)[C@H](C)NC(=O)[C@H](C)NC(=O)[C@H](CN(CC(=O)O)CC(F)(F)F)NC(=O)[C@H](CC(=O)O)NC1=O)NC(=O)[C@H](CC(C)(C)C)NC(=O)[C@H](CC(=O)O)NC2=O (stereo partly drawn) [I-1798, Ac-PL3-Asp-Npg-B5-Asp-TfeGA-Ala-Ala-Phe-Leu-PyrS2-3Thi-BztA-[4Pippip]GlnR-NH2]	0.012
CC(=O)N1CCC[C@]12CCCCCC[C@@](C)(C(=O)N[C@@H](CC(=O)O)C(=O)N[C@@H](CC(=O)O)C(=O)N[C@@H](C)C(=O)N[C@@H](C)C(=O)N[C@@H](Cc1ccccc1)C(=O)N[C@@H](CC(C)C)C(=O)NC(C)(C)C(=O)N[C@@H](Cc1ccsc1)C(=O)N[C@@H](Cc1csc3ccccc13)C(=O)N[C@@H](CCC(N)=O)C(N)=O)NC(=O)[C@H](CC(C)(C)C)NC(=O)[C@H](CC(=O)O)NC2=O [I-1809, Ac-PL3-Asp-Npg-S5-Asp-Asp-Ala-Ala-Phe-Leu-Aib-3Thi-BztA-Gln-NH2]	1.95

The remaining lines, values ahead:

IC50 [µM]	Compound
0.015	CC(=O)N1CCC[C@]12CC=CCCCC1(CCCC=CCCCOC(=O)N3CC[C@@](C(=O)N[C@@H](Cc4ccsc4)C(=O)N[C@@H](Cc4csc5ccccc45)C(=O)N[C@@H](CCC(N)=O)C(N)=O)(C3)NC(=O)[C@H](CC(C)C)NC(=O)[C@H](Cc3ccccc3)NC(=O)[C@H](C)NC(=O)[C@H](C)NC(=O)[C@H](CN(CC(=O)O)CC(F)(F)F)NC(=O)[C@H](CC(=O)O)NC1=O)NC(=O)[C@H](CC1CCCCC1)NC(=O)[C@H](CC(=O)O)NC2=O (stereo partly drawn) [I-1775, Ac-PL3-Asp-Cha-B5-Asp-TfeGA-Ala-Ala-Phe-Leu-PyrS2-3Thi-BztA-Gln-NH2]
0.528	CC(=O)N1CCC[C@]12CC=CCCCC1(CCCC=CCCCOC(=O)N3CC[C@@](C(=O)N[C@@H](Cc4ccsc4)C(=O)N[C@@H](Cc4csc5ccccc45)C(=O)N[C@@H](CCC(N)=O)C(N)=O)(C3)NC(=O)[C@H](CC(C)C)NC(=O)[C@H](Cc3ccccc3)NC(=O)[C@H](C)NC(=O)[C@H](C)NC(=O)[C@H](Cc3ccc(O)cc3)NC(=O)[C@H](CC(=O)O)NC1=O)NC(=O)[C@H](CC(C)(C)C)NC(=O)[C@H](CC(=O)O)NC2=O (stereo partly drawn) [I-1784, Ac-PL3-Asp-Npg-B5-Asp-Tyr-Ala-Ala-Phe-Leu-PyrS2-3Thi-BztA-Gln-NH2]
0.031	CC(=O)N1CCC[C@]12CC=CCCCC1(CCCC=CCCCOC(=O)N3CC[C@@](C(=O)N[C@@H](Cc4ccsc4)C(=O)N[C@@H](Cc4csc5ccccc45)C(=O)N[C@@H](CCC(N)=O)C(N)=O)(C3)NC(=O)[C@H](CC(N)=O)NC(=O)[C@H](Cc3ccccc3)NC(=O)[C@H](C)NC(=O)[C@H](C)NC(=O)[C@H](CCc3ccc(O)cc3)NC(=O)[C@H](CC(=O)O)NC1=O)NC(=O)[C@H](CC(C)(C)C)NC(=O)[C@H](CC(=O)O)NC2=O (stereo partly drawn) [I-1785, Ac-PL3-Asp-Npg-B5-Asp-hTyr-Ala-Ala-Phe-Asn-PyrS2-3Thi-BztA-Gln-NH2]
0.183	CC(=O)N1CCC[C@]12CC=CCCCC1(CCCC=CCCCOC(=O)N3CC[C@@](C(=O)N[C@@H](Cc4ccsc4)C(=O)N[C@@H](Cc4csc5ccccc45)C(=O)N[C@@H](CCC(N)=O)C(N)=O)(C3)NC(=O)[C@H](CCO)NC(=O)[C@H](Cc3ccccc3)NC(=O)[C@H](C)NC(=O)[C@H](C)NC(=O)[C@H](Cc3c[nH]c4ccccc34)NC(=O)[C@H](CC(=O)O)NC1=O)NC(=O)[C@H](CC(C)(C)C)NC(=O)[C@H](CC(=O)O)NC2=O (stereo partly drawn) [I-1789, Ac-PL3-Asp-Npg-B5-Asp-Trp-Ala-Ala-Phe-Hse-PyrS2-3Thi-BztA-Gln-NH2]
0.028	CC(=O)N1CCC[C@]12CC=CCCCC1(CCCC=CCCCOC(=O)N3CC[C@@](C(=O)N[C@@H](Cc4ccsc4)C(=O)N[C@@H](Cc4csc5ccccc45)C(=O)N[C@@H](CCC(N)=O)C(N)=O)(C3)NC(=O)[C@H](CC(C)C)NC(=O)[C@H](Cc3ccccc3)NC(=O)[C@H](C)NC(=O)[C@H](C)NC(=O)[C@H](Cc3c[nH]cn3)NC(=O)[C@H](CC(=O)O)NC1=O)NC(=O)[C@H](CC(C)(C)C)NC(=O)[C@H](CC(=O)O)NC2=O (stereo partly drawn) [I-1795, Ac-PL3-Asp-Npg-B5-Asp-His-Ala-Ala-Phe-Leu-PyrS2-3Thi-BztA-Gln-NH2]
0.416	CC(=O)N1CCC[C@H]1C(=O)N[C@@H](CC(=O)O)C(=O)N[C@@H](CC(C)(C)C)C(=O)N[C@]1(C)CCCCCCCCOC(=O)N2CC[C@@](C(=O)N[C@@H](Cc3ccsc3)C(=O)N[C@@H](Cc3csc4ccccc34)C(=O)N[C@@H](CCC(N)=O)C(N)=O)(C2)NC(=O)[C@H](CC(C)C)NC(=O)[C@H](Cc2ccccc2)NC(=O)[C@H](C)NC(=O)[C@H](C)NC(=O)[C@H](CC(=O)O)NC(=O)[C@H](CC(=O)O)NC1=O [I-1810, Ac-Pro-Asp-Npg-R5-Asp-Asp-Ala-Ala-Phe-Leu-PyrS2-3Thi-BztA-Gln-NH2]
0.156	CC(=O)N1CCC[C@]12CC=CCCCC1(CCCC=CCCCOC(=O)N3CC[C@@](C(=O)N[C@@H](Cc4ccccc4)C(=O)N[C@@H](Cc4c[nH]c5ccccc45)C(=O)N[C@@H](CCC(N)=O)C(N)=O)(C3)NC(=O)[C@H](CC(C)C)NC(=O)[C@H](Cc3ccccc3)NC(=O)[C@H](C)NC(=O)[C@H](C)NC(=O)[C@H](CC(=O)O)NC(=O)[C@H](CC(=O)O)NC1=O)NC(=O)[C@H](CC(C)C)NC(=O)[C@H](CC(=O)O)NC2=O (stereo partly drawn) [I-1811, Ac-PL3-Asp-Leu-B5-Asp-Asp-Ala-Ala-Phe-Leu-PyrS2-Phe-Trp-Gln-NH2]
